Numbered stars: 1 amine (or outer) side, 2 acyl side, 3 side chain; on linkers, the order of the positions; unused ones are H or OH. Bridge positions count the residues as written; N and C are the ends. Square brackets hold non-standard residues; d marks the D form. Peptide text beside a SMILES is read from it. * marks the point of attachment. C20 diacid = O=C(O)CCCCCCCCCCCCCCCCCCC(=O)*; Pro(4R-NH2) = N[C@H]1CN[C@H](C(=O)O)C1; γGlu = O=C(O)[C@H](CCC(=O)[*:2])N[*:1]; NMeI = CC[C@H](C)[C@H](NC)C(=O)O; Sar = CNCC(=O)O
Legend:
[1] = Pharmacokinetic (PK) profiling in rats; type: in vivo; settings: male, Sprague Dawley, rat, plasma, single sc bolus, 100 nmol/kg (18, NN96), 20 nmol/kg (72, 76), 30 nmol/kg (73, 82, 118, 162, 166, 172); for CL/F: apparent clearance; for half-life: terminal elimination half-life, read-out: t½ (converted)
Description: Sprague Dawley male rats were given a single subcutaneous (sc) bolus of each peptide to be tested at doses as specified below..
Study A: Following the administration of a 100 nmol/kg dose of a test peptide of the invention (Compound 18) and a comparison pramlintide analogue NN96 (see Example 5, above), respectively, blood samples were drawn from the tail vein at 0.5, 3, 8, 15, 36, 60 and 81 hours post-dosing. 4 rats were used (2 rats per compound). The rats were euthanized immediately after the last blood sampling by overdose of O2/CO2.
Study B: 20 nmol/kg doses of Compound 72 and Compound 76, respectively, of the invention were administered. Blood samples were drawn by sublingual bleeding prior to dosing and at 2, 6, 12, 24, 48, 72 and 96 hours after dosing. 4 rats were used (2 rats per compound). The rats were euthanized immediately after the last blood sampling by overdose of O2/CO2.
Study C: 30 nmol/kg doses of Compound 73, Compound 82 and Compound 118, respectively, of the invention were administered. Blood samples were drawn from the tail vein prior to dosing and at 24, 48, 72 and 96 hours after dosing. Blood samples were taken from two rats at each time point, and only 2 blood samples were drawn from each rat, i.e. 8 rats were used for each compound. The rats were euthanized immediately after the last blood sampling by concussion and cervical dislocation.
Study D: 30 nmol/kg doses of Compound 162, Compound 166 and Compound 172 were administered. Blood samples were drawn from the tail vein prior to dosing and at 24, 48, 72, 96 and 168 hours after dosing. Blood samples were taken from two rats at each time point, and only 2 blood samples were drawn from each rat, i.e. 10 rats were used for each compound. The rats were euthanized immediately after the last blood sampling by concussion and cervical dislocation.
The dosing vehicle used for each test peptide was a mannitol-containing histidine buffer (pH 7.0). Plasma samples were analyzed after precipitation with ethanol by liquid chromatography mass spectrometry (LC-MS/MS). Mean plasma concentrations were used for calculation of the pharmacokinetic parameters using the non-compartmental approach in Phoenix WinNonlin 6.3.
Plasma terminal elimination half-life (t½) was determined as In(2)/λz, where λz is the magnitude of the slope of the log linear regression of the log concentration versus time profile during the terminal phase. Apparent clearance (CL/F) was determined as dose/AUCinf (sc), where AUCinf is the area under the plasma concentration vs. time curve extrapolated to infinity (AUCinf = AUClast + Clast/λz, where Clast is the last observed plasma concentration).

[2] = Assessment of chemical stability: normalized purity by RP-HPLC after incubation at 40 °C; type: physicochemical; settings: normalized purity (T=0 set to 100), 0.2 mg/ml; for Chem. stability; 7 days, 40°C pH 4: pH 4, 7 days; for Chem. stability; 7 days, 40°C pH 7.5: pH 7.5, 7 days; for Chem. stability; 7 days, 40°C pH 9: pH 9, 7 days
Outline: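 Peptides at 0.2 mg/ml in water adjusted to pH 4, 7.5 or 9, held at 40 °C for 7 days. Purity by RP-HPLC (C8/ammonium formate or C18/TFA gradients), UV 220 nm, as main-peak area-%; normalized to T=0 set as 100 for each pH.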

Structure (SMILES)	CL/F [1] [mL/h/kg]	half-life [1] [h]	Chem. stability; 7 days, 40°C pH 4 [2] [area-%]	Chem. stability; 7 days, 40°C pH 7.5 [2] [area-%]	Chem. stability; 7 days, 40°C pH 9 [2] [area-%]
CC[C@H](C)[C@@H](C(=O)N[C@@H](CC(C)C)C(=O)N[C@@H](CO)C(=O)N[C@@H](CO)C(=O)N[C@H](C(=O)N[C@@H](CC(=O)O)C(=O)N[C@H](C(=O)NCC(=O)N[C@@H](CO)C(=O)N[C@@H](CC(=O)O)C(=O)N[C@H](C(=O)N1CCC[C@H]1C(N)=O)[C@@H](C)O)C(C)C)[C@@H](C)O)N(C)C(=O)[C@H](C)NC(=O)CN(C)C(=O)[C@H](Cc1ccccc1)NC(=O)[C@H](CO)NC(=O)[C@H](CO)NC(=O)[C@H](CO)NC(=O)[C@H](CO)NC(=O)[C@H](CCCNC(=N)N)NC(=O)[C@H](Cc1c[nH]cn1)NC(=O)[C@H](CC(C)C)NC(=O)[C@H](Cc1ccccc1)NC(=O)[C@H](CCC(=O)O)NC(=O)[C@H](C)NC(=O)[C@H](CC(C)C)NC(=O)[C@H](CCCNC(=N)N)NC(=O)[C@H](CCC(N)=O)NC(=O)[C@@H](NC(=O)[C@H](C)NC(=O)[C@@H]1CSSC[C@H](NC(=O)[C@H](CCCNC(=N)N)NC(=O)CC[C@H](NC(=O)CCCCCCCCCCCCCCCCCCC(=O)O)C(=O)O)C(=O)N[C@@H](CC(N)=O)C(=O)N[C@@H]([C@@H](C)O)C(=O)N[C@@H](C)C(=O)N[C@@H]([C@@H](C)O)C(=O)N1)[C@@H](C)O [Compound 73, [19CD]-isoGlu-RC()NTATC()ATQRLAEFLHRSSSSF-Gly(Me)-A-Ile(Me)-LSSTDVGSDTP-NH2] ({C20 diacid-γGlu}-RCNTATCATQRLAEFLHRSSSSF[Sar]A[NMeI]LSSTDVGSDTP-NH2; disulfide 2-7)	3.06	55.4			
CC[C@H](C)[C@@H](C(=O)N[C@@H](CC(C)C)C(=O)N[C@@H](CO)C(=O)N[C@@H](CO)C(=O)N[C@H](C(=O)N[C@@H](CCC(=O)O)C(=O)N[C@H](C(=O)NCC(=O)N[C@@H](CO)C(=O)N[C@@H](CCC(=O)O)C(=O)N[C@H](C(=O)N1CCC[C@H]1C(N)=O)[C@@H](C)O)C(C)C)[C@@H](C)O)N(C)C(=O)[C@H](C)NC(=O)CN(C)C(=O)[C@H](Cc1ccccc1)NC(=O)[C@H](CO)NC(=O)[C@H](CO)NC(=O)[C@H](CO)NC(=O)[C@H](CO)NC(=O)[C@H](CCCNC(=N)N)NC(=O)[C@H](Cc1c[nH]cn1)NC(=O)[C@H](CC(C)C)NC(=O)[C@H](Cc1ccccc1)NC(=O)[C@H](CCC(=O)O)NC(=O)[C@H](C)NC(=O)[C@H](CC(C)C)NC(=O)[C@H](CCCNC(=N)N)NC(=O)[C@H](CCC(N)=O)NC(=O)[C@@H](NC(=O)[C@H](C)NC(=O)[C@@H]1CSSC[C@H](NC(=O)[C@H](CCCNC(=N)N)NC(=O)CC[C@H](NC(=O)CCCCCCCCCCCCCCCCCCC(=O)O)C(=O)O)C(=O)N[C@@H](CC(N)=O)C(=O)N[C@@H]([C@@H](C)O)C(=O)N[C@@H](C)C(=O)N[C@@H]([C@@H](C)O)C(=O)N1)[C@@H](C)O [Compound 76, [19CD]-isoGlu-RC()NTATC()ATQRLAEFLHRSSSSF-Gly(Me)-A-Ile(Me)-LSSTEVGSETP-NH2] ({C20 diacid-γGlu}-RCNTATCATQRLAEFLHRSSSSF[Sar]A[NMeI]LSSTEVGSETP-NH2; disulfide 2-7)	3.53	37.3			
CC[C@H](C)[C@@H](C(=O)N[C@@H](CC(C)C)C(=O)N[C@@H](CO)C(=O)N[C@@H](CO)C(=O)N[C@H](C(=O)N[C@@H](CCC(=O)O)C(=O)N[C@H](C(=O)NCC(=O)N[C@@H](CO)C(=O)N[C@@H](CCC(=O)O)C(=O)N[C@H](C(=O)N1CCC[C@H]1C(N)=O)[C@@H](C)O)C(C)C)[C@@H](C)O)N(C)C(=O)[C@H](C)NC(=O)CN(C)C(=O)[C@H](Cc1ccccc1)NC(=O)[C@H](CO)NC(=O)[C@H](CO)NC(=O)[C@H](CCCNC(=N)N)NC(=O)[C@H](Cc1c[nH]cn1)NC(=O)[C@H](CC(C)C)NC(=O)[C@H](Cc1ccccc1)NC(=O)[C@H](CCC(=O)O)NC(=O)[C@H](C)NC(=O)[C@H](CC(C)C)NC(=O)[C@H](CCCNC(=N)N)NC(=O)[C@H](CCC(N)=O)NC(=O)[C@@H](NC(=O)[C@H](C)NC(=O)[C@@H]1CSSC[C@H](NC(=O)[C@H](CCCNC(=N)N)NC(=O)CC[C@H](NC(=O)CCCCCCCCCCCCCCCCCCC(=O)O)C(=O)O)C(=O)N[C@@H](CC(N)=O)C(=O)N[C@@H]([C@@H](C)O)C(=O)N[C@@H](C)C(=O)N[C@@H]([C@@H](C)O)C(=O)N1)[C@@H](C)O [Compound 82, [19CD]-isoGlu-RC()NTATC()ATQRLAEFLHRSSF-Gly(Me)-A-Ile(Me)-LSSTEVGSETP-NH2] ({C20 diacid-γGlu}-RCNTATCATQRLAEFLHRSSF[Sar]A[NMeI]LSSTEVGSETP-NH2; disulfide 2-7)	4.01	44.2			
CC[C@H](C)[C@@H](C(=O)N[C@@H](CC(C)C)C(=O)N[C@@H](CO)C(=O)N[C@@H](CO)C(=O)N[C@H](C(=O)N[C@@H](CC(N)=O)C(=O)N[C@H](C(=O)NCC(=O)N[C@@H](CO)C(=O)N[C@@H](CC(N)=O)C(=O)N[C@H](C(=O)N1C[C@H](N)C[C@H]1C(N)=O)[C@@H](C)O)C(C)C)[C@@H](C)O)N(C)C(=O)[C@H](C)NC(=O)CN(C)C(=O)[C@H](Cc1ccccc1)NC(=O)[C@H](CC(N)=O)NC(=O)[C@H](CC(N)=O)NC(=O)[C@H](CO)NC(=O)[C@H](CO)NC(=O)[C@H](CCCNC(=N)N)NC(=O)[C@H](Cc1c[nH]cn1)NC(=O)[C@H](CC(C)C)NC(=O)[C@H](Cc1ccccc1)NC(=O)[C@H](CCC(=O)O)NC(=O)[C@H](C)NC(=O)[C@H](CC(C)C)NC(=O)[C@H](CCCNC(=N)N)NC(=O)[C@H](CCC(N)=O)NC(=O)[C@@H](NC(=O)[C@H](C)NC(=O)[C@@H]1CSSC[C@H](NC(=O)[C@H](CCCNC(=N)N)NC(=O)CC[C@H](NC(=O)CCCCCCCCCCCCCCCCCCC(=O)O)C(=O)O)C(=O)N[C@@H](CC(N)=O)C(=O)N[C@@H]([C@@H](C)O)C(=O)N[C@@H](C)C(=O)N[C@@H]([C@@H](C)O)C(=O)N1)[C@@H](C)O [Compound 110, [19CD]-isoGlu-RC()NTATC()ATQRLAEFLHRSSNNF-Gly(Me)-A-Ile(Me)-LSSTNVGSNT-Apr-NH2] ({C20 diacid-γGlu}-RCNTATCATQRLAEFLHRSSNNF[Sar]A[NMeI]LSSTNVGSNT[Pro(4R-NH2)]-NH2; disulfide 2-7)			74	66	59
CC[C@H](C)[C@@H](C(=O)N[C@@H](CC(C)C)C(=O)N[C@@H](CO)C(=O)N[C@@H](CO)C(=O)N[C@H](C(=O)N[C@@H](CC(N)=O)C(=O)N[C@H](C(=O)NCC(=O)N[C@@H](CO)C(=O)N[C@@H](CC(N)=O)C(=O)N[C@H](C(=O)N1CCC[C@H]1C(N)=O)[C@@H](C)O)C(C)C)[C@@H](C)O)N(C)C(=O)[C@H](C)NC(=O)CN(C)C(=O)[C@H](Cc1ccccc1)NC(=O)[C@H](CC(N)=O)NC(=O)[C@H](CC(N)=O)NC(=O)[C@H](CO)NC(=O)[C@H](CO)NC(=O)[C@H](CCCNC(=N)N)NC(=O)[C@H](Cc1c[nH]cn1)NC(=O)[C@H](CC(C)C)NC(=O)[C@H](Cc1ccccc1)NC(=O)[C@H](CCC(=O)O)NC(=O)[C@H](C)NC(=O)[C@H](CC(C)C)NC(=O)[C@H](CCCNC(=N)N)NC(=O)[C@H](CCC(N)=O)NC(=O)[C@@H](NC(=O)[C@H](C)NC(=O)[C@@H]1CSSC[C@H](NC(=O)[C@H](Cc2c[nH]c3ccccc23)NC(=O)[C@H](CCCNC(=N)N)NC(=O)CC[C@H](NC(=O)CCCCCCCCCCCCCCCCCCC(=O)O)C(=O)O)C(=O)N[C@@H](CC(N)=O)C(=O)N[C@@H]([C@@H](C)O)C(=O)N[C@@H](C)C(=O)N[C@@H]([C@@H](C)O)C(=O)N1)[C@@H](C)O [Compound 174, [19CD]-isoGlu-RWC()NTATC()ATQRLAEFLHRSSNNF-Gly(Me)-A-Ile(Me)-LSSTNVGSNTP-NH2] ({C20 diacid-γGlu}-RWCNTATCATQRLAEFLHRSSNNF[Sar]A[NMeI]LSSTNVGSNTP-NH2; disulfide 3-8)			92	31	39

Reference: EP3046573B1, “AMYLIN ANALOGUES” (Zealand Pharma A/S, priority 2013, dated 2015)
